Measurements published in BindingDB's records for doi:10.1021/acs.jmedchem.9b00021 (2019).

Biological target: T1, Menin (Homo sapiens, UniProt O00255)
T1 sequence (O00255 whole entry): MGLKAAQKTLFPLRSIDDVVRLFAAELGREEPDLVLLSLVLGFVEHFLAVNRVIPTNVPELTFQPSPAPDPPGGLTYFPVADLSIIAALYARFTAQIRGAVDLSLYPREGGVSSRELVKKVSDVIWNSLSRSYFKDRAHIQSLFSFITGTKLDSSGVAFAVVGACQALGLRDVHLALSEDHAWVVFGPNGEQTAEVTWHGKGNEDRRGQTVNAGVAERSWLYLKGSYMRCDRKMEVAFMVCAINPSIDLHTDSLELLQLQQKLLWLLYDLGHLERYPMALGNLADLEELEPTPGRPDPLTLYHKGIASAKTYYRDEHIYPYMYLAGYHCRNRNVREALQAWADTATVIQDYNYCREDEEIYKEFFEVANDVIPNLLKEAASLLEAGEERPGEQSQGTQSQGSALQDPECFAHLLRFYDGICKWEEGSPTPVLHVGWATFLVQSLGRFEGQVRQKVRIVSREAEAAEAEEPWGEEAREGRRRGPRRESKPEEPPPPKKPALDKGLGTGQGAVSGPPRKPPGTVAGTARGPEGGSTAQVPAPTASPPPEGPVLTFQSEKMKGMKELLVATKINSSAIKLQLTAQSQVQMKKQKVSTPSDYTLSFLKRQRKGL
Experiment: Inhibition of FAM-probe binding to Menin (unknown origin) after 60 mins by fluorescence polarization competitive binding assay

## CC(=O)O[C@@H]1CCC[C@H]1[C@](C#N)(c1ccccc1)C1CCN(CC2CN(c3ccc(C#N)cc3)C2)CC1
  IC50: 3.5 µM
  Ki: 1100 nM
